From publication PMC6269682, “Apocynin: Chemical and Biophysical Properties of a NADPH Oxidase Inhibitor” (Molecules, 2013)

Experiments:
[1] = molecular target: T1, human serum albumin (HSA) (Homo sapiens, UniProt P02768); test: probe fluorescence enhancement and blue shift on binding; displaced by apocynin
T1 construct: gene ALB

[2] = molecular target: T1, human serum albumin (HSA); test: intrinsic fluorescence quenching (Stern-Volmer, apparent Ka), with displacement of fluorescent site probes; type: binding

T1 sequence (P02768 25-609): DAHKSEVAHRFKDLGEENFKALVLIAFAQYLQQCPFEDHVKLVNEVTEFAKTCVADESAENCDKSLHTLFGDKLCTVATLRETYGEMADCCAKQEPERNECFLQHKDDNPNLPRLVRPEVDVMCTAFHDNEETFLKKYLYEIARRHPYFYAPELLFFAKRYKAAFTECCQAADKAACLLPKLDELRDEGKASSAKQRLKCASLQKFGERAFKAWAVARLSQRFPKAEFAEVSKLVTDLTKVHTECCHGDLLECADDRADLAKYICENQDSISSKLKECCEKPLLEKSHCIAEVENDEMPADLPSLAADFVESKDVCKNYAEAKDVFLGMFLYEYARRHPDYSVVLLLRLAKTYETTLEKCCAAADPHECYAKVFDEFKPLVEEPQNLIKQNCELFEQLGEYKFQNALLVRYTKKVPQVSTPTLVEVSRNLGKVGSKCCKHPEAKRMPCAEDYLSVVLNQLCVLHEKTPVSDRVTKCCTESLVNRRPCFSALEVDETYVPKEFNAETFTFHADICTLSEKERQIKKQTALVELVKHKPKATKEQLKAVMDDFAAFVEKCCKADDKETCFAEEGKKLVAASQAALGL

Compound | probe fluorescence enhancement and blue shift on binding; displaced by apocynin [1] | Kd [2] [µM]
CN(C)c1cccc2c(S(=O)(=O)NCC(=O)O)cccc12 [DG, dansylglycine] | apocynin was able to displace both fluorescent probes, but a greater effect was observed using DNSA | 
CN(C)c1cccc2c(S(N)(=O)=O)cccc12 [DNSA, 5-(dimethylamino)-1-naphthalenesulfonamide] | binding of these probes to albumin provoked a significant increase in their fluorescence quantum yield | 
COc1cc(C(C)=O)ccc1O [APO, 4-hydroxy-3-methoxyacetophenone] |  | 45.7
